Where two headings read alike, the source gives them in different places.
Tests used:
[1] = test system: rat passive peritoneal anaphylaxis; experiment: Rat passive peritoneal anaphylaxis (PPA); assay type: in vivo; conditions: mean ± SEM, 3-7 rats per group
Source text: (a) inhibit rat passive peritoneal anaphylaxis; and
(a) Rat passive peritoneal anaphylaxis (PPA)
The method has been described previously (Ross, Janet W., Smith, H. and Spicer, Barbara A. Increased vascular permeability during passive peritoneal anaphylaxis in the rat. Int. Arch. Allergy appl. Immun. 51, 226, 1976.)
Serum containing heat-labile homocytotropic antibody was raised in rats to ovalbumin by a method similar to that described by Mota, I. (The mechanism of anaphylaxis. I. Production and biological properties of mast cell sensitising antibody. Immunology, 7, 681; 1964). Male Wistar rats of 250-300 g were given intraperitoneal injections of 0.5 ml of Bordetella pertussis vaccine (4×10^10 organisms/ml; Burroughs Wellcome, London) and subcutaneous injections of 0.5 ml of an emulsion of 100 mg of ovalbumin in 2 ml of isotonic saline and 3 ml of Freund's incomplete adjuvant. The rats were bled by cardiac puncture on day 18, the blood was pooled and the serum separated, stored at -20° C. and thawed only once before use. The serum produced PCA activity in recipient rats down to a dilution of 1:32 to 1:64 after 72 hr and persisted for several days. This activity was lost to a dilution of 1:2 by heating at 56° for 4 hr even when the sensitising period was reduced to 4 hr.
Passive peritoneal anaphylaxis
Rats were given intraperitoneal injections of 2 ml of a 1:5 dilution of the rat anti-serum in isotonic saline. 2 hr later 0.3 ml of a 5% solution of Pontamine Sky Blue (Raymond A. Lamb, London) is isotonic saline was injected intravenously, followed by an intraperitoneal injection of the test compound in 1 ml of saline; (control rats received 1 ml of saline); followed 30 sec. later by an intraperitoneal injection of 5 ml of a Tyrode solution containing 50 μg/ml heparin and 0.4 mg/ml of ovalbumin. The concentrations of the compounds were quoted as those in the 6 ml of fluid injected intraperitoneally. Extractly 5 min. after challenge the rats were stunned and bled and their peritoneal fluids were collected by opening their peritoneal cavities over funnels into polycarbonate tubes in ice. The supernatants were separated from the cellular residue by centrifuging at 150 g for 5 min. and any samples obviously contaminated with blood were discarded and the remainder were retained for estimation of dye, histamine and SRS-A. Groups of at least 5 rats were used for each dose of compound and the treatments were randomized.
Assay of peritoneal fluids
Collected peritoneal fluids were immediately cooled to 0° C. and centrifuged and the supernatant fluids assayed for dye within 2 hr. 0.5-ml samples of the supernatants were added to 1 ml of 12% trichloracetic acid and stored at -20° C. and used to assay for histamine. The remainders of the supernatant fluids were placed in a boiling water bath for 5 min. and stored frozen at -20° C. until assayed for SRS-A.
The optical densities (OD) at 625 nm of the supernatants were determined. Samples were taken from supernatants with an OD greater than 2 and diluted in Tyrode's solution before reading.
Histamine was assayed using an automated spectrofluorimetric system (Technicon Autoanalyser) by a method similar to that of Evans, D. P., Lewis, J. A. and Thomson, D. S.: (An automated fluorimetric assay for the rapid determination of histamine in biological fluids. Life Sci. 12,327, 1973).
SRS-A was assayed on the isolated guinea pig ileum preparation in the presence of atropine (5×10^-7 M) and mepyramine maleate (10^-6 M), the latter to abolish the histamine response. (Brocklehurst, W. E. The release of histamine and formulation of a slow reacting substance (SRS-A) during anaphylactic shock. J. Physiol., Lond. 151, 416, 1960). Bulked peritoneal fluids from passively sensitised and challenged rats were centrifuged, heated, stored at -20° C. in 0.5 ml aliquots, and used as a reference SRS-A standard, and arbitrarily designated as containing 10 Units per ml. […]

[2] = molecular target: T1, histamine (spasmogenic effects) on isolated guinea pig ileum (Cavia porcellus, UniProt P31389); experiment: Anti-histamine activity in vitro on guinea pig ileum (pA2); conditions: for Kb: read-out: pA2 Mean ± SEM (antihistamine activity in vitro) (converted)
T1 construct: isolated guinea pig ileum; from tissue; host or cells: isolated guinea pig ileum
T1 sequence (P31389 whole entry): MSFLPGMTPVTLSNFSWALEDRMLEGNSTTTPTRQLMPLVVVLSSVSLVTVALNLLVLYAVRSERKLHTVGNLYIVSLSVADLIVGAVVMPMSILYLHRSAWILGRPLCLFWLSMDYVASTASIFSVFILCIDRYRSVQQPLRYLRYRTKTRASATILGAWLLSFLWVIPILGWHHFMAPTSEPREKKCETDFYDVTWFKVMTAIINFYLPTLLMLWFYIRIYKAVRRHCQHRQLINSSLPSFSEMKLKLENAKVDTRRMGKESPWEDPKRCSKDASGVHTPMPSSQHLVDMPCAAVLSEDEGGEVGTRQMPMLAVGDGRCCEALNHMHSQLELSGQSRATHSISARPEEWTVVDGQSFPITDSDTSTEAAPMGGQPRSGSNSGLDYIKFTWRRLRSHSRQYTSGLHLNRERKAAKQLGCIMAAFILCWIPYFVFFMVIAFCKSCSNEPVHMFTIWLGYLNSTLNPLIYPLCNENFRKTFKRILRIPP
Procedure: (b) antagonise the spasmogenic effects of histamine on isolated guinea pig ileum.
(b) Measurement of anti-histamine activity in vitro on guinea pig ileum using the […]
The pA2 of the compound was determined in a similar manner to that described by Schild, H. O. (pA, A new scale for the measurement of drug antagonism. Brit. J. Pharmacol. 2, 189, 1947).

[3] = test system: mice; experiment: Acute intravenous toxicity in mice; assay type: in vivo, mouse
[4] = contact time 10.0 min, (part assay) for 4d

Kb ([2]; contact time 0.5 min)	Kb ([2]; contact time 2.0 min)	pA2 Mean ± SEM (antihistamine activity in vitro) [2, 4]	SMILES	Dye concentration in peritoneal fluid as % of that in control rats not given compound ([1]; 2 × 10^-4 M injected i.p.)	Histamine concentration in peritoneal fluid as % of that in control rats not given compound ([1]; 2 × 10^-4 M injected i.p.)	SRSA concentration in peritoneal fluid as % of that in control rats not given compound ([1]; 2 × 10^-4 M injected i.p.)	Dye concentration in peritoneal fluid as % of that in control rats not given compound ([1]; 2 × 10^-5 M injected i.p.)	Histamine concentration in peritoneal fluid as % of that in control rats not given compound ([1]; 2 × 10^-5 M injected i.p.)	SRSA concentration in peritoneal fluid as % of that in control rats not given compound ([1]; 2 × 10^-5 M injected i.p.)	Kb [2, 4]	Dye concentration in peritoneal fluid as % of that in control rats not given compound ([1]; 2 × 10^-6 M injected i.p.)	Histamine concentration in peritoneal fluid as % of that in control rats not given compound ([1]; 2 × 10^-6 M injected i.p.)	SRSA concentration in peritoneal fluid as % of that in control rats not given compound ([1]; 2 × 10^-6 M injected i.p.)	other results
63.1 nM	50.1 nM	–	O=c1oc2cc(OCCN3CCN(Cc4ccc(Cl)cc4)CC3)ccc2c(O)c1[N+](=O)[O-] [Example 4d, 1-(4-Chlorobenzyl)-4-[2-(4-hydroxy-3-nitrocoumarin-7-yloxy)ethyl]piperazine]	40 ± 7%	11 ± 0.9%	26 ± 6%	65 ± 11%	39 ± 8%	73 ± 7%	~126 nM	–	–	–	–
50.1 nM	20 nM	8.3	O=c1oc2cc(OCC(O)CN3CCN(Cc4ccc(Cl)cc4)CC3)ccc2c(O)c1[N+](=O)[O-] (centres unmarked) [Example 2d, 1-(4-Chlorobenzyl)-4-[2-hydroxy-3-(4-hydroxy-3-nitrocoumarin-7-yloxy)propyl]piperazine]	–	–	–	36 ± 4%	13 ± 0.9%	47 ± 11%	–	46 ± 4%	23 ± 1.0%	65 ± 13%	–
2000 nM	2000 nM	5.6	O=c1oc2cc(CN3CCN(Cc4ccc(Cl)cc4)CC3)ccc2c(O)c1[N+](=O)[O-] [Example 5e, 1-(4-Chlorobenzyl)-4-[(4-hydroxy-3-nitrocoumarin-7-yl)methyl]piperazine]	28 ± 9%	17 ± 3%	–	88 ± 14%	31 ± 2%	67 ± 15%	–	103 ± 13%	93 ± 18%	94 ± 10%	–
79.4 nM	25.1 nM	7.9	O=c1oc2cc(OCCCN3CCN(Cc4ccccc4)CC3)ccc2c(O)c1[N+](=O)[O-] [Example 6d, 1-Benzyl-4-[3-(4-hydroxy-3-nitrocoumarin-7-yloxy)propyl]piperazine]	67 ± 10%	12 ± 1.0%	55 ± 5%	91 ± 12%	56 ± 8%	86 ± 14%	–	–	–	–	–
25.1 nM	10 nM	8.4	CCCc1c(OCC(O)CN2CCN(Cc3ccc(Cl)cc3)CC2)ccc2c(O)c([N+](=O)[O-])c(=O)oc12 (centres unmarked) [Example 3d, 1-(4-chlorobenzyl)-4-[2-hydroxy-3-(4-hydroxy-3-nitro-8-n-propylcoumarin-7-yloxy)propyl]piperazine]	–	–	–	47 ± 6%	15 ± 2%	75 ± 9%	–	79 ± 9%	55 ± 9%	81 ± 6%	–

SMILES	Kb ([2]; contact time 0.5 min)	Kb ([2]; contact time 2.0 min)	pA2 Mean ± SEM (antihistamine activity in vitro) [2, 4]	Dye concentration in peritoneal fluid as % of that in control rats not given compound ([1]; 2 × 10^-4 M injected i.p.)	Histamine concentration in peritoneal fluid as % of that in control rats not given compound ([1]; 2 × 10^-4 M injected i.p.)	SRSA concentration in peritoneal fluid as % of that in control rats not given compound ([1]; 2 × 10^-4 M injected i.p.)	Dye concentration in peritoneal fluid as % of that in control rats not given compound ([1]; 2 × 10^-5 M injected i.p.)	Histamine concentration in peritoneal fluid as % of that in control rats not given compound ([1]; 2 × 10^-5 M injected i.p.)	SRSA concentration in peritoneal fluid as % of that in control rats not given compound ([1]; 2 × 10^-5 M injected i.p.)	Kb [2, 4]	Dye concentration in peritoneal fluid as % of that in control rats not given compound ([1]; 2 × 10^-6 M injected i.p.)	Histamine concentration in peritoneal fluid as % of that in control rats not given compound ([1]; 2 × 10^-6 M injected i.p.)	SRSA concentration in peritoneal fluid as % of that in control rats not given compound ([1]; 2 × 10^-6 M injected i.p.)	other results
O=c1oc2cc(OCCCN3CCN(Cc4ccc(Cl)cc4)CC3)ccc2c(O)c1[N+](=O)[O-] [Example 1f, 1-(4-Chlorobenzyl)-4-[3-(4-hydroxy-3-nitrocoumarin-7-yloxy)propyl]piperazine]	15.8 nM	2.51 nM	–	–	–	–	–	–	–	0.631 nM	32.1 ± 3.6%	28.4 ± 3.4%	62.5 ± 17.2%	Dye concentration in peritoneal fluid as % of that in control rats not given compound ([1]; 2 × 10^-7 M injected i.p.): 88.1 ± 8.3%; Histamine concentration in peritoneal fluid as % of that in control rats not given compound ([1]; 2 × 10^-7 M injected i.p.): 75.8 ± 7.5%; SRSA concentration in peritoneal fluid as % of that in control rats not given compound ([1]; 2 × 10^-7 M injected i.p.): 71.8 ± 14.8%; Dye concentration in peritoneal fluid as % of that in control rats not given compound ([1]; 2 × 10^-8 M injected i.p.): 100 ± 16.7%; Histamine concentration in peritoneal fluid as % of that in control rats not given compound ([1]; 2 × 10^-8 M injected i.p.): 99.6 ± 8.3%; SRSA concentration in peritoneal fluid as % of that in control rats not given compound ([1]; 2 × 10^-8 M injected i.p.): 100 ± 14.8%; Deaths in mice at the high dose ([3]; mice, intravenous, 300 mg/kg, group of three): all animals died; Deaths in mice during four days ([3]; mice, intravenous, 1, 3 and 10 mg/kg, three groups of ten): No deaths occurred; Deaths in mice at the two lower doses ([3]; mouse, in vivo): none

Source: US4263299A, “Heterocyclic coumarin derivatives” (Beecham Group Limited, priority 1978, dated 1981)
